Source: PMC3527451, “A Pilot Randomized, Placebo Controlled, Double Blind Phase I Trial of the Novel SIRT1 Activator SRT2104 in Elderly Volunteers” (PLoS ONE, 2012)
Entries after “also recorded” stand apart in the source; their conditions may differ.

Legend:
CYP2D6 = details: human liver microsomes; cited from earlier work
[1] = cited from earlier work
rats and dogs = system: rats and dogs; parameters: method as in ref 17, 18; SRT2104 Investigator's Brochure; details: acute safety pharmacology, doses up to 2.0 g/kg; SRT2104 Investigator's Brochure; cited from earlier work
SIRT1 = system: SIRT1; parameters: method as in JC Milne et al, 2007; details: lowering of the Km for acetylated protein substrate; ref JC Milne et al, 2007; cited from earlier work
SIRT3 = details: SIRT1 activation over SIRT3; ref SRT2104 Investigator's Brochure; cited from earlier work
CYP2C19 = details: human liver microsomes; cited from earlier work
[2] = system: bacterial reverse mutation assay (AMES test), mouse lymphoma and mouse micronucleus; parameters: method as in ref 17, 18; SRT2104 Investigator's Brochure; details: preclinical; SRT2104 Investigator's Brochure; cited from earlier work
CYP2C9 = details: human liver microsomes; cited from earlier work
[3] = system: elderly male and female volunteers; experiment: Modified oral glucose tolerance test (mOGTT); type: in vivo, human
Procedure: The oral glucose tolerance test (OGTT) allows identification and monitoring of individuals with impaired glucose tolerance and to evaluate the pharmacological effects of glucose lowering agents, [21]. A mOGTT was performed at baseline and on day 29 to assess the pharmacodynamic effects of SRT2104 (or placebo) on glucose, insulin and C-peptide levels. On both occasion, after an overnight fast, subjects were asked to drink a standard glucose beverage containing 75 g of glucose. Blood sample were drawn 10 min before and just prior to the subject consuming the beverage. Additional blood samples were drawn at 10, 20, 30, 60, 90, 120 and 180 minutes after the subject had consumed the glucose beverage. Plasma level of glucose, insulin and C-peptide were measured at each time point. The maximum glucose level (Gmax) was determined, and the area under the plasma glucose concentration–time curve (AUCgluc) was calculated using the trapezoidal rule. AUCgluc60 was defined as the area under the curve from 0 to 60 min after glucose ingestion, the period during which plasma glucose concentration increases. The effects of SRT2104 (or placebo) on glucose, insulin and C-peptide levels and relative AUCs were calculated in each subject as the differences between values at baseline (screening) and after 28 daily administrations of the test material.

CYP3A4 = details: human liver microsomes; cited from earlier work
healthy male subjects = system: healthy male subjects; parameters: method as in SRT-2104-002; details: 250 mg oral suspension and intravenous microdose of 100µg 14C-SRT2104, eight healthy male subjects; ref SRT-2104-002; cited from earlier work

Cc1nc(-c2cccnc2)sc1C(=O)Nc1ccccc1-c1cn2c(CN3CCOCC3)csc2n1 [SRT2104]
inhibition of CYP2D6 (CYP2D6): not an inhibitor; also recorded: does not inhibit | effect of food on overall exposure ([1]; 0.5 and 2.0 g doses, standardized solid meal vs fasted state): increase exposure levels; also recorded: increase in overall exposure | effect of food on inter-subject variability in exposure ([1]; fed state vs fasted state): substantial reduction in inter-subject variability | central nervous system, cardiovascular system and pulmonary effects (rats and dogs): no central nervous system (CNS), cardiovascular system (CVS) or pulmonary effects; also recorded: not associated with adverse central nervous system, cardiovascular system, or pulmonary effects | increase in SIRT1 activity (SIRT1): approximately two-fold increase in activity | fold selectivity as compared to SIRT3 (SIRT3): > 100 | inhibition of CYP2C19 (CYP2C19): not an inhibitor; also recorded: does not inhibit | genotoxicity [2]: not genotoxic | inhibition of CYP2C9 (CYP2C9): not an inhibitor; also recorded: does not inhibit | OGTT responses ([3]; 0.5 or 2.0 g for 28 days): No significant changes | rise of insulin and C-peptide and peak insulin concentration in OGTT ([3]; 2.0 g/day, day 29 relative to baseline): trends to reduced rates in the rise of both insulin and C-peptide and a lower peak insulin concentration | insulin and C-peptide levels and relative AUCs in OGTT ([3]; baseline vs day 29): no statistically significant changes | inhibition of CYP3A4 (CYP3A4): not an inhibitor; also recorded: does not inhibit | tolerability (healthy male subjects): well-tolerated
